In patent publication EP4741379A1, “CLASS OF PROGRAMMED CELL DEATH INHIBITORS, PREPARATION METHOD THEREFOR AND USE THEREOF” (SHANGHAI INSTITUTE OF ORGANIC CHEMISTRY, CHINESE ACADEMY OF …, priority 2023, dated 2025):
Where two headings read alike, the source gives them in different places.

How the values were obtained:
[1] = test system: FADD-deficient Jurkat cells; experiment: TNF-induced programmed necrosis of FADD-deficient Jurkat cells (Cell Titer-Glo viability); type: cell-based, human; details: for EC50: Homo sapiens, Jurkat
Experimental: (§1) The biological test protocol is adopted to test effects of the compound on TNF-induced programmed necrosis of FADD (Fas-associated death domain)-deficient Jurkat cells and L929 cells.
(§2) Two different stimulation methods were used: treating with tumor necrosis factor (TNFα) alone, or treating with TNFα in combination of mitochondrial-derived cysteine-aspartate activator (SMAC) SM164. Cell viability was determined by measuring chemiluminescence values, thereby assessing the bioactivity of the compounds in inhibiting programmed cell necrosis.
(§3) Method: FADD-deficient Jurkat cells: FADD-deficient Jurkat cells (human peripheral blood leukemia T cell line) were cultured in vitro. After reaching logarithmic growth phase, cells were collected and centrifuged at 1000 rpm for 5 minutes. A supernatant was discarded. A cell concentration was adjusted to 2.5×10^5/mL, and cells were seeded into a 384-well plate at 40 µL per well. In the corresponding wells, 5 µL of SM164 (50 nM) and compounds diluted with cell culture medium were added. After pre-treatment at 37°C for 1 hour, 5 µL of TNFα (50 ng/mL) diluted with cell culture medium was added to each well as a stimulation group, while 5 µL of culture medium was added as a control group. After the plate was incubated in a cell culture incubator (37°C, 5% CO2) for 14 hours, 15 µL of Cell Titer-Glo solution was added to each well. Then, the plate was incubated at room temperature for 30 minutes. Luminescence was measured to assess intracellular ATP levels. Cell viability was set at 100% for unstimulated DMSO control wells. […] The plate was placed in a cell culture incubator (37°C, 5% CO2) and cultured for 12 hours. In the corresponding wells, 5 µL of SM164 (500 nM) and compounds diluted with cell culture medium were added. After pre-treatment at 37°C for 1 hour, 5 µL of TNFα (500 ng/mL) diluted with cell culture medium was added to the wells as a stimulation group, while 5 µL of culture medium was added as a control group. After the plate was incubated in the cell incubator (37°C, 5% CO2) for 14 hours, 15 µL of Cell Titer-Glo solution was added to each well. Then, the plate was incubated at room temperature for 30 minutes, and luminescence was measured to assess intracellular ATP levels. Cell viability was set at 100% for unstimulated DMSO control wells. EC50 values of the compounds were calculated using Prism GraphPad statistical software.

L929 cells = experiment: TNF-induced programmed necrosis of L929 cells (Cell Titer-Glo viability); type: cell-based, mouse; details: Mus musculus
Experimental: as §1, §2, §3

[2] = read-out: EC50 (nM) FADD^-/- Jurkat cells (human-derived) TNFα
[3] = L929, read-out: EC50 (nM) L929 cells (mouse-derived) TNFα
[4] = stimulation with TNFα + SM164, read-out: EC50 (nM) FADD^-/- Jurkat cells (human-derived) TNFα+ SM164
[5] = stimulation with TNFα alone, read-out: EC50 (nM) FADD^-/- Jurkat cells (human-derived) TNFα
[6] = L929, stimulation with TNFα + SM164, read-out: EC50 (nM) L929 cells (mouse-derived) TNFα+ SM164
[7] = L929, stimulation with TNFα alone, read-out: EC50 (nM) L929 cells (mouse-derived) TNFα

Compound	EC50 [1, 2] [nM]	EC50 (L929 cells; [3]) [nM]	EC50 [1, 4] [nM]	EC50 [1, 5] [nM]	EC50 (L929 cells; [6]) [nM]	EC50 (L929 cells; [7]) [nM]	EC50 (L929 cells; L929, stimulation with TNFα + SM164, µM, read-out: EC50 L929 cells (mouse-derived) TNFα+ SM164) [nM]	EC50 (L929 cells; L929, stimulation with TNFα alone, µM, read-out: EC50 L929 cells (mouse-derived) TNFα) [nM]	programmed necroptosis inhibitory activity compared to SAR443122 ([1]; TNFα alone or TNFα + SM164, human derived FADD-deficient Jurkat cells)
COC(C)(C)C#Cc1ccc([C@H](C)NC(=O)c2nnn(C)c2Cc2ccccc2)cc1 [IRCBC-036]	0.222	13.1	–	–	–	–	–	–	–
Cn1nnc(C(=O)NCc2ccc(C#Cc3ccccn3)nc2)c1Cc1ccccc1 [IRCBC-057]	–	–	3.9	0.537	35.5	12.6	–	–	–
C[C@H](NC(=O)c1nnn(C)c1Cc1ccccc1)c1ccc(C#Cc2ccc(N3CCCC3)cn2)cc1 [IRCBC-104]	–	–	0.002	–	0.12	0.071	–	–	–
CC(=O)Nc1ccc(C#Cc2ccc([C@H](C)NC(=O)c3nnn(C)c3Cc3ccccc3)cc2)nc1 [IRCBC-149]	–	–	0.003	–	0.066	0.045	–	–	–
COc1cnc(C#Cc2ccc([C@H](C)NC(=O)c3nnn(C)c3Cc3ccccc3)cc2)nc1 [IRCBC-095]	–	–	0.002	–	0.052	0.01	–	–	–
C[C@H](NC(=O)c1nnn(C)c1Cc1ccccc1)c1ccc(C#Cc2ccnc(N(C)C)c2)cc1 [IRCBC-101]	–	–	0.582	0.036	2.1	0.405	–	–	–
C[C@H](NC(=O)c1nnn(C)c1Cc1cccc(C#N)c1)c1ccc(C#Cc2ccccn2)cc1 [IRCBC-072]	–	–	2.73	0.049	17.3	1.79	–	–	–
Cn1nnc(C(=O)NCc2ccc(C#Cc3ccccn3)c(F)c2)c1Cc1ccccc1 [IRCBC-058]	–	–	1.25	0.018	35.2	1.5	–	–	–
Cn1nnc(C(=O)NCc2ccc(C#Cc3ccccn3)cc2F)c1Cc1ccccc1 [IRCBC-059]	–	–	2.26	0.025	14.8	3.07	–	–	–
C[C@H](NC(=O)c1nnn(C)c1Cc1ccccc1)c1ccc(C#CC2CCOC2)cc1 (stereo partly drawn) [IRCBC-010]	–	–	13.4	0.481	6.71	3.27	–	–	–
CN1C(=O)N[C@H](Cc2c[nH]c3c(Cl)cccc23)C1=O [Nec-1s, reference compound]	228	443	–	–	–	–	–	–	–
C[C@H](NC(=O)c1nnn(C)c1Cc1ccccc1)c1ccc(C#Cc2ccc(N(C)C)cn2)cc1 [IRCBC-053]	–	–	0.001	–	0.011	0.004	–	–	–
C[C@H](NC(=O)c1nnn(C)c1Cc1ccccc1)c1ccc(C#Cc2ccc(F)cn2)cc1 [IRCBC-049]	0.002	0.118	–	–	–	–	–	–	–
C[C@H](NC(=O)c1nnn(C)c1Cc1ccccc1)c1ccc(C#Cc2cc(N(C)C)ccn2)cc1 [IRCBC-125]	–	–	0.145	0.01	1.68	0.445	–	–	–
C[C@H](NC(=O)c1nnn(C)c1Cc1ccccc1)c1ccc(C#Cc2csc(N(C)C)n2)cc1 [IRCBC-106]	–	–	0.256	0.004	0.3	0.139	–	–	–
C[C@H](NC(=O)c1nnn(C)c1Cc1ccccc1)c1ccc(C#Cc2cncn2C)cc1 [QY-20-55]	–	–	1.4	0.1	23	2.2	–	–	–
C[C@H](NC(=O)c1nnn(C)c1Cc1ccccc1)c1ccc(C#Cc2ncccn2)cc1 [IRCBC-046]	–	–	0.087	0.001	0.43	0.203	–	–	–
C[C@H](NC(=O)c1nnn(C)c1Cc1ccccc1)c1ccc(C#Cc2nccn2C)cc1 [IRCBC-002]	0.392	55.7	–	–	–	–	–	–	–

Compound	EC50 [1, 2] [nM]	EC50 (L929 cells; [3]) [nM]	EC50 [1, 4] [nM]	EC50 [1, 5] [nM]	EC50 (L929 cells; [6]) [nM]	EC50 (L929 cells; [7]) [nM]	EC50 (L929 cells; L929, stimulation with TNFα + SM164, µM, read-out: EC50 L929 cells (mouse-derived) TNFα+ SM164) [nM]	EC50 (L929 cells; L929, stimulation with TNFα alone, µM, read-out: EC50 L929 cells (mouse-derived) TNFα) [nM]	programmed necroptosis inhibitory activity compared to SAR443122 ([1]; TNFα alone or TNFα + SM164, human derived FADD-deficient Jurkat cells)
C[C@H](NC(=O)c1cnn(C)c1Cc1ccccc1)c1ccc(C#Cc2ccccn2)cc1 [QY-20-2]	–	–	0.3	0.03	0.5	0.1	–	–	–
C[C@H](NC(=O)c1nnn(C)c1Cc1ccccc1)c1ccc(C#Cc2cnc3cccnn23)cc1 [IRCBC-131]	–	–	0.16	0.003	8.75	2.05	–	–	–
C[C@H](NC(=O)c1nnn(C)c1Cc1ccccc1)c1ccc(C#Cc2ccncc2Cl)cc1 [IRCBC-093]	0.001	0.374	–	–	–	–	–	–	–
C[C@H](NC(=O)c1nnn(C)c1Cc1ccccc1)c1ccc(C#Cc2ncccc2F)cc1 [IRCBC-122]	–	–	0.035	–	0.032	0.026	–	–	–
C[C@H](NC(=O)c1nnn(C)c1Cc1ccccc1)c1ccc(C#Cc2ccc(C(C)(C)O)cn2)cc1 [IRCBC-120]	–	–	0.079	0.002	1.74	0.438	–	–	–
C[C@H](NC(=O)c1nnn(C)c1Cc1cccc(Cl)c1)c1ccc(C#Cc2ccccn2)cc1 [IRCBC-016]	1.69	5.85	–	–	–	–	–	–	–
CCN1CCN(c2ccc(C#Cc3ccc([C@H](C)NC(=O)c4nnn(C)c4Cc4ccccc4)cc3)nc2)CC1 [IRCBC-134]	–	–	0.002	–	0.005	0.001	–	–	–
C[C@H](NC(=O)c1nnn(C)c1Cc1ccccc1F)c1ccc(C#Cc2ccccn2)cc1 [IRCBC-067]	–	–	0.261	0.004	0.887	0.264	–	–	–
C[C@H](NC(=O)c1nnn(C)c1Cc1ccccc1)c1ccc(C#Cc2ncc(NC3CC3)cn2)cc1 [IRCBC-271]	–	–	0.0111	–	0.00618	–	–	–	–
C[C@H](NC(=O)c1nnn(C)c1Cc1ccccc1)c1ccc(C#Cc2ncco2)cc1 [IRCBC-008]	0.055	1.86	–	–	–	–	–	–	–
C[C@H](NC(=O)c1nnn(C)c1Cc1ccccc1)c1ccc(C#Cc2ccc(C(F)(F)F)cn2)cc1 [IRCBC-096]	–	–	0.406	0.006	–	–	> 1000	> 1000	–
C[C@H](NC(=O)c1nnn(C)c1Cc1ccccc1)c1ccc(C#Cc2ccnn2C)cc1 [IRCBC-003]	0.095	1.11	–	–	–	–	–	–	–
C[C@H](NC(=O)c1nnn(C)c1Cc1ccccc1)c1ccc(C#Cc2ncccc2N(C)C)cc1 [IRCBC-124]	–	–	0.034	–	5.87	1.93	–	–	–
C[C@H](NC(=O)c1nnn(C)c1Cc1ccccc1)c1ccc(C#CC2CCOCC2)cc1 [QY-18-44]	–	–	0.3	0.04	0.3	0.2	–	–	–
COc1cccnc1C#Cc1ccc([C@H](C)NC(=O)c2nnn(C)c2Cc2ccccc2)cc1 [IRCBC-123]	–	–	0.004	–	1.05	0.246	–	–	–
C[C@H](NC(=O)c1nnn(C)c1Cc1ccccc1)c1ccc(C#Cc2nccs2)cc1 [IRCBC-007]	0.072	0.631	–	–	–	–	–	–	–
C[C@H](NC(=O)c1nnn(C)c1Cc1ccccc1)c1ccc(C#Cc2ccncc2C#N)cc1 [IRCBC-094]	–	–	0.304	0.001	2.16	0.403	–	–	–
C[C@H](NC(=O)c1nnn(C)c1Cc1ccc(F)cc1)c1ccc(C#Cc2ccccn2)cc1 [QY-20-53]	–	–	0.05	< 0.01	0.1	0.03	–	–	stronger
